Key:
[1] = Half life in pH 7.3 PBS incubated at 37 degC by RP-18-HPLC method; assay type: physicochemical
[2] = Half life in human CEM/0 cell extracts incubated at 37 degC by RP-18-HPLC method; assay type: ADME, CCRF-CEM
[3] = test system: Human immunodeficiency virus 1; test: Antiviral activity against HIV1 3B infected in human CEM/0 cells assessed as reduction in virus-induced giant cell formation incubated for 4 to 5 days; assay type: functional, organism-based; conditions: Human immunodeficiency virus 1, 3B, CCRF-CEM
[4] = test system: Human immunodeficiency virus 2; test: Antiviral activity against HIV2 ROD infected in human CEM/0 cells assessed as reduction in virus-induced giant cell formation incubated for 4 to 5 days; assay type: functional, organism-based; conditions: Human immunodeficiency virus 2, ISOLATE ROD, CCRF-CEM
[5] = test system: Human immunodeficiency virus 2; test: Antiviral activity against HIV2 ROD infected in human thymidine kinase deficient CEM/TK- cells assessed as reduction in virus-induced giant cell formation incubated for 4 to 5 days; assay type: functional, organism-based; conditions: Human immunodeficiency virus 2, ISOLATE ROD
[6] = Cytotoxicity against human CEM/0 cells assessed as reduction in cell proliferation incubated for 4 to 5 days
[7] = Half life in presence of pig liver esterase assessed as half life for DiPPro-NDP by RP-18-HPLC method; assay type: ADME
[8] = Half life in pH 7.3 RPMI medium incubated at 37 degC by RP-18-HPLC method; assay type: physicochemical
[9] = Drug metabolism in human CEM/0 cell extracts assessed as increase in NDP/NMP ratio after 10 hrs by HILIC-HPLC method; assay type: ADME; conditions: ccrf-cem
[10] = Half life in presence of pig liver esterase assessed as half life for hydrolysis R1 intermediate by RP-18-HPLC method; assay type: ADME; conditions: isolated protein
[11] = Drug metabolism in human CEM/0 cell extracts assessed as increase in NDP/NMP ratio by HILIC-HPLC method; assay type: ADME, cell-based; conditions: ccrf-cem

half-life [1] [h] | half-life [2] [h] | EC50 [3] [µM] | EC50 [4] [µM] | EC50 [5] [µM] | half-life [7] [s] | half-life [8] [h] | Drug metabolism [9] | t1/2 [10] [h] | Compound | CC50 ([6]; CEM/0 cells) [µM] | Drug metabolism [11] | CC50 ([6]; ccrf-cem) [µM]
36 | 0.04 | 0.33 | 1.05 | 6.31 | – | – | – | – | CCCCCCCC(=O)Oc1ccc(COP(=O)(OCc2ccc(OC(C)=O)cc2)OP(=O)(O)OC[C@@H]2C=C[C@H](n3cc(C)c(=O)[nH]c3=O)O2)cc1.N (some centres undefined) | 33 | – | –
40 | 0.04 | 0.33 | 1.36 | 2.32 | 8.4 | – | – | – | CCCCCCCCCC(=O)Oc1ccc(COP(=O)(OCc2ccc(OC(C)=O)cc2)OP(=O)(O)OC[C@@H]2C=C[C@H](n3cc(C)c(=O)[nH]c3=O)O2)cc1.N (some centres undefined) | 15 | – | –
48 | 0.16 | 0.29 | 0.28 | 1.77 | – | – | – | – | CCCCCCCCCCCC(=O)Oc1ccc(COP(=O)(OCc2ccc(OC(C)=O)cc2)OP(=O)(O)OC[C@@H]2C=C[C@H](n3cc(C)c(=O)[nH]c3=O)O2)cc1.N (some centres undefined) | 26 | – | –
15 | 0.03 | 0.72 | 1.38 | > 10 | – | – | – | – | CC(=O)Oc1ccc(COP(=O)(OCc2ccc(OC(=O)c3ccc(C(F)(F)F)cc3)cc2)OP(=O)(O)OC[C@@H]2C=C[C@H](n3cc(C)c(=O)[nH]c3=O)O2)cc1.N (some centres undefined) | 51 | – | –
58 | 0.04 | 0.29 | 1.47 | 10 | – | – | – | – | CC(=O)Oc1ccc(COP(=O)(OCc2ccc(OC(=O)c3ccc(C)cc3)cc2)OP(=O)(O)OC[C@@H]2C=C[C@H](n3cc(C)c(=O)[nH]c3=O)O2)cc1.N (some centres undefined) | 11 | – | –
36 | 0.71 | 0.33 | 1.47 | 6.31 | – | – | – | – | CCCCCCCC(=O)Oc1ccc(COP(=O)(OCc2ccc(OC(=O)CCCC)cc2)OP(=O)(O)OC[C@@H]2C=C[C@H](n3cc(C)c(=O)[nH]c3=O)O2)cc1.N (some centres undefined) | 66 | – | –
40 | 1.05 | 0.36 | 1.17 | 0.83 | 15.6 | – | – | – | CCCCCCCCCC(=O)Oc1ccc(COP(=O)(OCc2ccc(OC(=O)CCCC)cc2)OP(=O)(O)OC[C@@H]2C=C[C@H](n3cc(C)c(=O)[nH]c3=O)O2)cc1.N (some centres undefined) | 20 | – | –
52 | 1.91 | 0.1 | 0.28 | 0.13 | – | – | – | – | CCCCCCCCCCCC(=O)Oc1ccc(COP(=O)(OCc2ccc(OC(=O)CCCC)cc2)OP(=O)(O)OC[C@@H]2C=C[C@H](n3cc(C)c(=O)[nH]c3=O)O2)cc1.N (some centres undefined) | 30 | – | –
15 | 0.88 | 0.4 | 0.72 | > 10 | – | – | – | – | CCCCC(=O)Oc1ccc(COP(=O)(OCc2ccc(OC(=O)c3ccc(C(F)(F)F)cc3)cc2)OP(=O)(O)OC[C@@H]2C=C[C@H](n3cc(C)c(=O)[nH]c3=O)O2)cc1.N (some centres undefined) | 37 | – | –
50 | 0.96 | 0.3 | 1.45 | 10 | – | – | – | – | CCCCC(=O)Oc1ccc(COP(=O)(OCc2ccc(OC(=O)c3ccc(C)cc3)cc2)OP(=O)(O)OC[C@@H]2C=C[C@H](n3cc(C)c(=O)[nH]c3=O)O2)cc1.N (some centres undefined) | 14 | – | –
33 | 0.02 | 0.042 | 0.16 | > 10 | 12.6 | – | – | – | CCCCCCCC(=O)Oc1ccc(COP(=O)(OCc2ccc(OC(C)=O)cc2)OP(=O)(O)OC[C@H]2O[C@@H](n3cc(C)c(=O)[nH]c3=O)C[C@@H]2N=[N+]=[N-])cc1.N (some centres undefined) | 29 | – | –
35 | 0.04 | 0.016 | 0.14 | > 10 | 27 | 19 | metabolite_detected | – | CCCCCCCCCC(=O)Oc1ccc(COP(=O)(OCc2ccc(OC(C)=O)cc2)OP(=O)(O)OC[C@H]2O[C@@H](n3cc(C)c(=O)[nH]c3=O)C[C@@H]2N=[N+]=[N-])cc1.N (some centres undefined) | 20 | – | –
32 | 0.11 | 0.042 | 0.08 | 10 | 11.4 | – | – | 0.467 | CCCCCCCCCCCC(=O)Oc1ccc(COP(=O)(OCc2ccc(OC(C)=O)cc2)OP(=O)(O)OC[C@H]2O[C@@H](n3cc(C)c(=O)[nH]c3=O)C[C@@H]2N=[N+]=[N-])cc1.N (some centres undefined) | 18 | – | –
13 | 0.04 | 0.012 | 0.06 | > 10 | – | – | – | – | CC(=O)Oc1ccc(COP(=O)(OCc2ccc(OC(=O)c3ccc(C(F)(F)F)cc3)cc2)OP(=O)(O)OC[C@H]2O[C@@H](n3cc(C)c(=O)[nH]c3=O)C[C@@H]2N=[N+]=[N-])cc1.N (some centres undefined) | 100 | – | –
46 | 0.83 | 0.036 | 0.07 | > 10 | 16.2 | – | – | 0.25 | CCCCCCCC(=O)Oc1ccc(COP(=O)(OCc2ccc(OC(=O)CCCC)cc2)OP(=O)(O)OC[C@H]2O[C@@H](n3cc(C)c(=O)[nH]c3=O)C[C@@H]2N=[N+]=[N-])cc1.N (some centres undefined) | 73 | – | –
50 | 1 | 0.034 | 0.29 | 10 | 16.2 | 77 | – | 0.317 | CCCCCCCCCC(=O)Oc1ccc(COP(=O)(OCc2ccc(OC(=O)CCCC)cc2)OP(=O)(O)OC[C@H]2O[C@@H](n3cc(C)c(=O)[nH]c3=O)C[C@@H]2N=[N+]=[N-])cc1.N (some centres undefined) | 41 | – | –

half-life [1] [h] | half-life [2] [h] | EC50 [3] [µM] | EC50 [4] [µM] | EC50 [5] [µM] | half-life [7] [s] | half-life [8] [h] | Drug metabolism [9] | t1/2 [10] [h] | Compound | CC50 ([6]; CEM/0 cells) [µM] | Drug metabolism [11] | CC50 ([6]; ccrf-cem) [µM]
63 | 1.65 | 0.013 | 0.06 | 8.16 | 72 | – | – | 0.633 | CCCCCCCCCCCC(=O)Oc1ccc(COP(=O)(OCc2ccc(OC(=O)CCCC)cc2)OP(=O)(O)OC[C@H]2O[C@@H](n3cc(C)c(=O)[nH]c3=O)C[C@@H]2N=[N+]=[N-])cc1.N (some centres undefined) | 36 | – | –
19 | 0.83 | 0.036 | 0.06 | > 10 | – | – | – | – | CCCCC(=O)Oc1ccc(COP(=O)(OCc2ccc(OC(=O)c3ccc(C(F)(F)F)cc3)cc2)OP(=O)(O)OC[C@H]2O[C@@H](n3cc(C)c(=O)[nH]c3=O)C[C@@H]2N=[N+]=[N-])cc1.N (some centres undefined) | 58 | – | –
– | – | 0.011 | 0.054 | > 10 | – | – | – | – | CCCCC(=O)Oc1ccc(COP(=O)(OCc2ccc(OC(=O)CCCC)cc2)OP(=O)(O)OC[C@H]2O[C@@H](n3cc(C)c(=O)[nH]c3=O)C[C@@H]2N=[N+]=[N-])cc1.N | 60 | metabolite_detected | –
– | – | 0.026 | 0.23 | 1.3 | – | – | – | – | CCCCCCCCCC(=O)Oc1ccc(COP(=O)(OCc2ccc(OC(=O)CCCCCCCCC)cc2)OP(=O)(O)OC[C@H]2O[C@@H](n3cc(C)c(=O)[nH]c3=O)C[C@@H]2N=[N+]=[N-])cc1 | 38 | – | –
– | 1.65 | – | – | – | – | – | – | – | CCCCCCCC(=O)Oc1ccc(COP(=O)(O)OP(=O)(O)OC[C@@H]2C=C[C@H](n3cc(C)c(=O)[nH]c3=O)O2)cc1 | – | – | –
– | 0.833 | – | – | – | – | – | – | – | CCCCCCCCCC(=O)Oc1ccc(COP(=O)(O)OP(=O)(O)OC[C@@H]2C=C[C@H](n3cc(C)c(=O)[nH]c3=O)O2)cc1 | – | – | –
– | 1.15 | – | – | – | – | – | – | – | CCCCCCCCCCCC(=O)Oc1ccc(COP(=O)(O)OP(=O)(O)OC[C@@H]2C=C[C@H](n3cc(C)c(=O)[nH]c3=O)O2)cc1 | – | – | –
– | 11.5 | – | – | – | – | – | – | – | Cc1cn([C@H]2C=C[C@@H](COP(=O)(O)OP(=O)(O)OCc3ccc(OC(=O)c4ccc(C(F)(F)F)cc4)cc3)O2)c(=O)[nH]c1=O | – | – | –
– | 14.5 | – | – | – | – | – | – | – | Cc1ccc(C(=O)Oc2ccc(COP(=O)(O)OP(=O)(O)OC[C@@H]3C=C[C@H](n4cc(C)c(=O)[nH]c4=O)O3)cc2)cc1 | – | – | –
– | 1.65 | – | – | – | – | – | – | – | CCCCCCCC(=O)Oc1ccc(COP(=O)(O)OP(=O)(O)OC[C@H]2O[C@@H](n3cc(C)c(=O)[nH]c3=O)C[C@@H]2N=[N+]=[N-])cc1 | – | – | –
– | 0.833 | – | – | – | – | – | – | – | CCCCCCCCCC(=O)Oc1ccc(COP(=O)(O)OP(=O)(O)OC[C@H]2O[C@@H](n3cc(C)c(=O)[nH]c3=O)C[C@@H]2N=[N+]=[N-])cc1 | – | – | –
– | 1.05 | – | – | – | – | – | – | – | CCCCCCCCCCCC(=O)Oc1ccc(COP(=O)(O)OP(=O)(O)OC[C@H]2O[C@@H](n3cc(C)c(=O)[nH]c3=O)C[C@@H]2N=[N+]=[N-])cc1 | – | – | –
– | 3.83 | – | – | – | – | – | – | – | Cc1cn([C@H]2C[C@H](N=[N+]=[N-])[C@@H](COP(=O)(O)OP(=O)(O)OCc3ccc(OC(=O)c4ccc(C(F)(F)F)cc4)cc3)O2)c(=O)[nH]c1=O | – | – | –
– | – | 0.52 | 2.23 | 150 | – | – | – | – | Cc1cn([C@H]2C=C[C@@H](CO)O2)c(=O)[nH]c1=O [STAVUDINE] | – | – | 79
– | – | 0.044 | 0.49 | > 250 | – | – | – | – | Cc1cn([C@H]2C[C@H](N=[N+]=[N-])[C@@H](CO)O2)c(=O)[nH]c1=O [ZIDOVUDINE] | > 250 | – | –

Compound | half-life [1] [h] | half-life [2] [h] | EC50 [3] [µM] | EC50 [4] [µM] | EC50 [5] [µM] | half-life [7] [s] | half-life [8] [h] | Drug metabolism [9] | t1/2 [10] [h] | CC50 ([6]; CEM/0 cells) [µM] | Drug metabolism [11] | CC50 ([6]; ccrf-cem) [µM]
CCCCCCC(=O)Oc1ccc(COP(=O)(OCc2ccc(OC(=O)CCCCCC)cc2)OP(=O)(O)OC[C@H]2O[C@@H](n3cc(C)c(=O)[nH]c3=O)C[C@@H]2N=[N+]=[N-])cc1.N | – | – | 0.016 | 0.058 | > 10 | – | – | – | – | 47 | metabolite_detected | –
